Assay [1] relates to chick cardiac tissue. The settings on record: Cho et al. 2019; cited from earlier work.
Assay [2] deals with Lmna WT myofibers. Put plainly: Cell viability MTT assay, Lmna WT. Type of assay: cell-based, mouse. The following applies: wild-type myofibers; phleomycin 20 μg/ml pulses combined with NU7441 (2 μM) and/or KU55933 (2 μM); comparable to untreated Lmna KO. On the procedure: (§1) Pharmacological treatments. For preliminary experiments, myoblasts were differentiated using the standard protocol and treated with pharmacological treatments starting at day 5 of differentiation. For chromatin protrusion studies, paclitaxel was administered to differentiated myotubes in two 24 hours bursts at day 4 and day 6-post differentiation with a 24 hour recovery in between. Myotubes were then fixed in 4% PFA at day 7 and stained with anti-lamin B and DAPI in order to quantify the percentage of myonuclei with chromatin protrusions. For long term studies using the cGAS reporter, myotubes were treated with 10 nM of paclitaxel starting at day 5 and then media was refreshed every day. […] For DNA damage induction and inhibitor experiments, cells were treated with 20 μg/ml of phleomycin for a two-hour pulse on Day 3, 4, and 5 of differentiation. Concurrently, cells were treated with NU7441 (2 μM), KU55933 (2 μM) starting at day 2 of differentiation through day 10 of differentiation. For induction of DN-KASH and DN-KASHext, cells were treated with 1 μM doxycycline.
(§2) MTT assay. Myoblasts, seeded in a 96-well plate and differentiated as previously described for 0, 5, or 10 days, were assayed for cell viability according to the manufacturer's instructions (Promega, CellTiter 96 Non-Radioactive Cell Proliferation Assay). Fresh differentiation media was added two hours prior to the addition of 15 μL MTT 3-(4,5-dimethylthiazol-2-yl)-2,5-diphenyltetrazolium bromide dye. After incubation for 3 hours in MTT dye, 100 uL of Stop Solution was added to solubilize the formazan product (appears purple). Following overnight incubation at 37° C. and 5% CO2, the absorbance of each well (measured at 590 nm) was analyzed using a microplate reader.
On the technique in general: Formazan colour is commonly taken as a measure of viable cells.

Assay [3] concerns Lmna WT myofibers. Description: DNA damage by γH2AX foci per nucleus, Lmna WT. The following applies: for DNA damage (γH2AX foci): wild-type myofibers, phleomycin 20 μg/ml pulses combined with NU7441 (2 μM) and/or KU55933 (2 μM), comparable to untreated Lmna KO; for DNA damage (γH2AX foci per nucleus): Lmna WT cells, phleomycin with DNA-PK+ATM inhibition vs phleomycin alone. Type of assay: cell-based, mouse. On the procedure: as §1
Immunofluorescence staining of mouse cells and tissues. Cells were fixed in pre-warmed 4% PFA at the appropriate time point(s) and washed with PBS. Cells were blocked and permeabilized with a solution of 3% BSA, 0.1% Triton-X 100 and 0.1% Tween (Sigma) for 1 hour at room temperature. Cells were stained with primary antibodies diluted in blocking solution according to Table 4 at 4° C. overnight. Samples were washed with PBS and incubated for 1 hour at room temperature with 1:250 dilution of AlexaFluor antibodies (Invitrogen) and 1:1000 DAPI (Sigma). Single muscle fibers were stained using the same procedure in Eppendorf tube baskets with an increase in blocking solution Triton-X concentration to 0.25%.
Image analysis. Image sequences were analyzed using ZEN (Zeiss), ImageJ, or MATLAB (Mathworks) using only linear adjustments uniformly applied to the entire image region. Region of interest intensities were extracted using ZEN or ImageJ. To quantify cleaved caspase-3 (i.e. active) area and myofiber health, maximum intensity protections were generated, which were then blinded to the observer. Cleaved caspase-3 area was calculated by thresholding of the caspase-3 and myosin heavy chain fluorescent signal and expressing the cleaved caspase-3 signal relative to the myosin heavy chain signal. Myofiber contractions were scored based on a minimum of 6 random fields of view per replicate using a blinded analysis according to the scales provided in FIGS. 4A-4B. […] Protrusions lengths were both counted and measured by the presence of DAPI signal beyond the lamin B rim of the nucleus. Aspect ratio was quantified based on a thresholded lamin B rim to avoid the confounding factor of the DNA protrusions outside the body of the nucleus. Nuclear rupture was detected by an increase of the cytoplasmic NLS-GFP signal, or the localization of cGAS-mCherry to the nucleus. For better visualization of NLS-GFP cells many of the fluorescent single color image sequences were inverted. […] DNA damage was determined by counting H2AX foci and then binned based on foci number. If damage was so severe that individual foci could not be counted, these nuclei were placed in the >25 foci category. For Hsp90 quantification, average nuclear Hsp90 fluorescence intensity was determined from a single mid-nucleus z-plane image and normalized to the cytoplasmic intensity at two points immediately adjacent to the nucleus.

For assay [4], the system named is Lmna KO myofibers. Put plainly: Cell viability MTT assay, Lmna KO. Type of assay: cell-based, mouse. The settings on record: phleomycin alone or in combination with NU7441 and/or KU55933. As to the method: as §1, §2
Assay [5] has as its system Lmna KO myofibers. Put plainly: Quantification of myonuclei with chromatin protrusions. Type of assay: cell-based, mouse. The following applies: paclitaxel 50 nM starting day 4, read day 7, vs DMSO. As to the method:
Pharmacological treatments. For preliminary experiments, myoblasts were differentiated using the standard protocol and treated with pharmacological treatments starting at day 5 of differentiation. For chromatin protrusion studies, paclitaxel was administered to differentiated myotubes in two 24 hours bursts at day 4 and day 6-post differentiation with a 24 hour recovery in between. Myotubes were then fixed in 4% PFA at day 7 and stained with anti-lamin B and DAPI in order to quantify the percentage of myonuclei with chromatin protrusions. For long term studies using the cGAS reporter, myotubes were treated with 10 nM of paclitaxel starting at day 5 and then media was refreshed every day. […]
Image analysis. Image sequences were analyzed using ZEN (Zeiss), ImageJ, or MATLAB (Mathworks) using only linear adjustments uniformly applied to the entire image region. […] To quantify cleaved caspase-3 (i.e. active) area and myofiber health, maximum intensity protections were generated, which were then blinded to the observer. Cleaved caspase-3 area was calculated by thresholding of the caspase-3 and myosin heavy chain fluorescent signal and expressing the cleaved caspase-3 signal relative to the myosin heavy chain signal. Myofiber contractions were scored based on a minimum of 6 random fields of view per replicate using a blinded analysis according to the scales provided in FIGS. 4A-4B. […]

The subject of assay [6] is Lmna KO myofibers. Put plainly: Microharpoon assay of nuclear deformation. Type of assay: cell-based, mouse. The settings on record: Lmna KO myotubes, 50 nM paclitaxel for 24 hours vs DMSO. As to the method:
For the microharpoon studies, myoblasts were seeded in 35 mm glass bottom dishes and differentiated as previously described, except without the addition of a Matrigel top coat to allow microharpoon access. A Sutter P-97 micropipette puller was used to create microharpoons from borosilicate glass rods (Sutter; OD: 1.0 mm, ID: 0.78, 10 cm length) with tip diameters of ≈1 μm. Day 4 myotubes (Lmna KO and wild-type) were treated for 24 hours with either 50 nM Paclitaxel or the corresponding 0.1% DMSO. The following day, the microharpoon assay was performed as described in Fedorchak et al., “Cell Microharpooning to Study Nucleo-Cytoskeletal Coupling,” Methods Mol. Biol. 1411:241-254 (2016), which is hereby incorproated by reference in its entirety, with slight modifications to the pull parameters to accommodate myotubes. The microharpoon was inserted ≈5-7 μm from the edge of the nucleus and pulled 15 μm at a rate of 1 μm/s. Pull direction was always orthogonal to the long axis of the myofiber. Images were acquired at 40× (+1.6×) every 5 seconds. Nuclear strain and centroid displacement were calculated using a custom-written MATLAB program. […]

Assay [7] relates to Lmna H222P mice. The settings on record: Macquart et al. 2018; cited from earlier work.
The subject of assay [8] is Lmna KO myofibers. Description: Nuclear envelope rupture, cGAS-mCherry reporter foci. The settings on record: paclitaxel 10 nM starting day 5, vs DMSO. Type of assay: cell-based, mouse.
From the text: Each of the mutant myoblast lines were stably modified with lentiviral vectors to express the nuclear rupture reporter NLS-GFP (pCDH-CMV-NLS-copGFP-EF1-blastiS) and cGAS-mCherry (pCDH-CMV-eGAs^E225A/D227A-mCherry2-EF1-blastiS). cGAS is a cytosolic DNA binding protein; a cGAS mutant (E225A/D227A) with abolished enzyme activity and interferon production, but that still binds DNA (Civril et al., “Structural Mechanism of Cytosolic DNA Sensing by cGAS,” Nature 498:332-337 (2013), which is hereby incorporated by reference in its entirety) and serves as a nuclear envelope rupture reporter (Denais et al., “Nuclear Envelope Rupture and Repair During Cancer Cell Migration,” Science 352:353-358 (2016), which is hereby incorporated by reference in its entirety) was used.
Extended imaging using incubator microscope. […] Resulting images were analyzed using the Incucyte software, which performs fluorescence background subtraction using a top hat method and then subsequent thresholding. cGAS-mCherry cells were thresholded and then analyzed for increase in fluorescent foci over time to track the rate of increase in nuclear envelope rupture or damage. […]

Turning to `Cc1ccc2c(c1)C(=O)C1(O)CCN(c3ccccc3)C1=N2` (stereo not shown) [blebbistatin], the nuclear envelope rupture result in assay [1] is listed as “rescued”.

For phleomycin, the “myofiber viability (MTT)” value in assay [2] is reported as “loss of viability”; in assay [4], “did not further reduce viability”. Further, the “DNA damage (γH2AX foci)” value in assay [3] was “accumulation of DNA damage”.

`CC(=O)O[C@H]1C(=O)[C@@]2(C)[C@H]([C@H](OC(=O)c3ccccc3)[C@]3(O)C[C@H](OC(=O)[C@H](O)[C@@H](NC(=O)c4ccccc4)c4ccccc4)C(C)=C1C3(C)C)[C@]1(OC(C)=O)CO[C@@H]1C[C@@H]2O` [paclitaxel]: in assay [5], the “percentage of nuclei with chromatin protrusions” value is recorded as “significantly reduced the percentage of nuclei with chromatin protrusions”. In assay [6], the “nuclear deformation in response to cytoplasmic force application (nuclear strain)” value is “significantly reduced nuclear deformation”. For the same molecule, the cardiac conduction defects result in assay [7] was “improve cardiac conduction defects”. Besides, the “incidence of nuclear envelope rupture (cGAS-mCherry foci)” value in assay [8] is “significantly reduced”.

On to `O=c1cc(-c2cccc3c2Sc2ccccc2S3)oc(N2CCOCC2)c1` [KU55933], for which the “myofiber viability (MTT)” value in assay [2] is given as “loss of viability”. Moreover, in assay [3], the “DNA damage (γH2AX foci per nucleus)” value is given as “significant increase in DNA damage” and the “DNA damage (γH2AX foci)” value was “accumulation of DNA damage”. Moreover, in assay [4], the “myofiber viability (MTT)” value was “did not further reduce viability”.

With `O=c1cc(N2CCOCC2)oc2c(-c3cccc4c3sc3ccccc34)cccc12` [NU7441], the “myofiber viability (MTT)” value in assay [2] is listed as “loss of viability”; in assay [4], “did not further reduce viability”. For the same molecule, in assay [3], the “DNA damage (γH2AX foci per nucleus)” value is reported as “significant increase in DNA damage”. In addition, the “DNA damage (γH2AX foci)” value in assay [3] is recorded as “accumulation of DNA damage”.

The values above are taken from US20210353585A1, “METHODS AND COMPOSITIONS FOR TREATING LAMINOPATHIES AFFECTING SKELETAL OR CARDIAC MUSCLE” (CORNELL UNIVERSITY, priority 2018, published 2021).
